Columns and labels:
Experiment in all cases: Kinase inhibitor library screening, PrestoBlue cell viability, 1 or 10 μM, 72 h
[1] = tested on: IGR37 cells (parental); settings: for cell viability, IGR37 Parental, 10μΜ / cell viability, IGR37 Parental, 1μΜ: 72 h, in %; for viability at 1 µM / viability at 10 µM: Homo sapiens, IGR-37, 72 h; for viability at 1 µM: read-out: cell viability, IGR37 Parental, 1μΜ; for viability at 10 µM: read-out: cell viability, IGR37 Parental, 10μΜ
[2] = tested on: IGR37-XP cells (Vemurafenib-resistant); settings: for cell viability, IGR37 XP, 10μΜ / cell viability, IGR37 XP, 1μΜ: 72 h; for cell viability, IGR37 XP, 1μΜ: in %; for viability at 1 µM / viability at 10 µM: Homo sapiens, IGR-37, 72 h; for viability at 1 µM: read-out: cell viability, IGR37 XP, 1μΜ; for viability at 10 µM: read-out: cell viability, IGR37 XP, 10μΜ
[3] = tested on: 501Mel cells (parental); settings: 72 h; for cell viability, 501Mel Parental, 1μΜ / cell viability, 501Mel Parental, 10μΜ: in %; for viability at 1 µM / viability at 10 µM: Homo sapiens; for viability at 1 µM: read-out: cell viability, 501Mel Parental, 1μΜ; for viability at 10 µM: read-out: cell viability, 501Mel Parental, 10μΜ
In short: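 Two concentrations of every kinase inhibitor were tested on each melanoma line and its resistant counterparts, and cell survival was quantified by PrestoBlue against untreated wells.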

[4] = tested on: 501Mel-XP cells (Vemurafenib-resistant); settings: 72 h; for cell viability, 501Mel XP, 1μΜ / cell viability, 501Mel XP, 10μΜ: in %; for viability at 1 µM / viability at 10 µM: Homo sapiens; for viability at 1 µM: read-out: cell viability, 501Mel XP, 1μΜ; for viability at 10 µM: read-out: cell viability, 501Mel XP, 10μΜ
[5] = tested on: IGR37-GP cells (Dabrafenib-resistant); settings: for cell viability, IGR37 GP, 10μΜ / cell viability, IGR37 GP, 1μΜ: 72 h; for cell viability, IGR37 GP, 1μΜ: in %; for viability at 1 µM / viability at 10 µM: Homo sapiens, IGR-37, 72 h; for viability at 1 µM: read-out: cell viability, IGR37 GP, 1μΜ; for viability at 10 µM: read-out: cell viability, IGR37 GP, 10μΜ
[6] = tested on: A375-GP cells (Dabrafenib-resistant); settings: for cell viability, A375 GP, 1μΜ / cell viability, A375 GP, 10μΜ: 72 h, in %; for viability at 1 µM / viability at 10 µM: Homo sapiens, A-375, 72 h; for viability at 1 µM: read-out: cell viability, A375 GP, 1μΜ; for viability at 10 µM: read-out: cell viability, A375 GP, 10μΜ
[7] = tested on: A375 cells (parental); settings: for cell viability, A375 Parental, 1μΜ / cell viability, A375 Parental, 10μΜ: 72 h, in %; for viability at 1 µM / viability at 10 µM: Homo sapiens, A-375, 72 h; for viability at 1 µM: read-out: cell viability, A375 Parental, 1μΜ; for viability at 10 µM: read-out: cell viability, A375 Parental, 10μΜ
[8] = tested on: A375-XP cells (Vemurafenib-resistant); settings: for cell viability, A375 XP, 1μΜ / cell viability, A375 XP, 10μΜ: 72 h, in %; for viability at 1 µM / viability at 10 µM: Homo sapiens, A-375, 72 h; for viability at 1 µM: read-out: cell viability, A375 XP, 1μΜ; for viability at 10 µM: read-out: cell viability, A375 XP, 10μΜ
[9] = tested on: 501Mel-GP cells (Dabrafenib-resistant); settings: 72 h; for cell viability, 501Mel GP, 1μΜ / cell viability, 501Mel GP, 10μΜ: in %; for viability at 1 µM / viability at 10 µM: Homo sapiens; for viability at 1 µM: read-out: cell viability, 501Mel GP, 1μΜ; for viability at 10 µM: read-out: cell viability, 501Mel GP, 10μΜ

Row | Structure (SMILES) | cell viability, IGR37 Parental, 10μΜ [1] | cell viability, IGR37 XP, 10μΜ [2] | cell viability, 501Mel Parental, 1μΜ [3] | cell viability, 501Mel Parental, 10μΜ [3] | cell viability, 501Mel XP, 1μΜ [4] | cell viability, 501Mel XP, 10μΜ [4] | cell viability, IGR37 GP, 10μΜ [5] | cell viability, IGR37 GP, 1μΜ [5] | cell viability, A375 GP, 1μΜ [6] | cell viability, A375 GP, 10μΜ [6] | cell viability, A375 Parental, 1μΜ [7] | cell viability, A375 XP, 1μΜ [8] | cell viability, A375 XP, 10μΜ [8] | cell viability, 501Mel GP, 1μΜ [9] | cell viability, 501Mel GP, 10μΜ [9] | cell viability, IGR37 Parental, 1μΜ [1] | cell viability, IGR37 XP, 1μΜ [2] | cell viability, A375 Parental, 10μΜ [7] | viability at 1 µM [1] | viability at 10 µM [1] | further results
1 | COc1cccc(-c2cc(=O)c3ccccc3o2)c1N [PD98059] | 81.4 | 61.9% | 98.8 | 79.8 | 97.3 | 80.0 | 88.7% | 94.1 | 95.5 | 83.6 | 98.4 | 102.6 | 94.1 | 104.1 | 84.1 |  |  |  |  |  | 
2 | COc1cc2ncnc(Nc3cccc(Br)c3)c2cc1OC.Cl [PD153035 HCl] | 42.8 | 30.6% | 107.0 | 38.0 | 99.4 | 16.6 | 73.7% |  | 106.0 | 105.2 | 108.8 | 108.7 | 97.5 | 110.1 | 28.5 | 115.8 | 82.2 | 108.3 |  |  | 
3 | CCN(CC)CCCCNc1ncc2cc(-c3cc(OC)cc(OC)c3)c(NC(=O)NC(C)(C)C)nc2n1 [PD173074] |  |  |  |  |  |  |  |  |  |  |  |  |  |  |  |  |  |  | 99.8% | 75.6% | viability at 1 µM [2]: 92.2%; viability at 10 µM [2]: 14.7%; viability at 1 µM [3]: 103%; viability at 10 µM [3]: 11.8%; viability at 1 µM [4]: 97.2%; viability at 10 µM [4]: -0.025%; viability at 1 µM [5]: 91.4%; viability at 10 µM [5]: 50%; viability at 1 µM [6]: 98.2%; viability at 10 µM [6]: 62.8%; viability at 1 µM [7]: 105%; viability at 10 µM [7]: 70.1%; viability at 1 µM [8]: 100%; viability at 10 µM [8]: 72%; viability at 1 µM [9]: 106%; viability at 10 µM [9]: 13.2%
4 | O=C(NOCC(O)CO)c1cc(Br)c(F)c(F)c1Nc1ccc(I)cc1F (centres unmarked) [PD318088] | 36.8 | 22.8% | 54.5 | 54.4 | 84.8 | 57.7 | 66.4% | 76.0 | 31.6 | 15.6 | 19.2 | 36.7 | 11.2 | 99.4 | 79.2 | 37.8 | 63.3 | 16.4 |  |  | 
5 | O=C(NOC[C@H](O)CO)c1ccc(F)c(F)c1Nc1ccc(I)cc1F [PD0325901] |  |  |  |  |  |  |  |  |  |  |  |  |  |  |  |  |  |  | 34.5% | 35.2% | viability at 1 µM [2]: 58.6%; viability at 10 µM [2]: 15.7%; viability at 1 µM [3]: 56.4%; viability at 10 µM [3]: 64.3%; viability at 1 µM [4]: 72%; viability at 10 µM [4]: 54.1%; viability at 1 µM [5]: 76.5%; viability at 10 µM [5]: 46.2%; viability at 1 µM [6]: 12.6%; viability at 10 µM [6]: 13.1%; viability at 1 µM [7]: 17.6%; viability at 10 µM [7]: 17.5%; viability at 1 µM [8]: 11.5%; viability at 10 µM [8]: 11.4%; viability at 1 µM [9]: 87.8%; viability at 10 µM [9]: 66.1%

Reference: PMC6364417, “Kinase inhibitor library screening identifies synergistic drug combinations effective in sensitive and resistant melanoma cells” (Journal of Experimental & Clinical Cancer Research : CR, 2019)
